The experiment concerns the target human PDE4D3 (PDE4D) (Homo sapiens (Human), UniProt Q08499). Nature of the experiment: Phosphodiesterase (PDE)4 inhibitory activity evaluation test ([3H]cAMP hydrolysis by PDE4D enzyme solution). The experiment is classed as biochemical. As to conditions: recombinant human PDE4D3 expressed in COS-7 cells; [3H]cAMP substrate; 10 min at 30° C.; 2% DMSO. The text has this:
Phosphodiesterase (PDE)4 Inhibitory Activity Evaluation Test
(1) Large Scale Plasmid Preparation
Plasmid containing genes (HPDE4D) coding for human PDE4D3 cDNA (stored in Otsuka America Pharmaceutical, Inc., Maryland Research Laboratories) was transformed in E. coli, cultured on a large scale, and purified using an EndoFree™ Plasmid Maxi Kit (Qiagen).
(2) Abundant Expression and Purification of PDE4D
COS-7 cells derived from African green monkey kidneys were passage cultured in D-MEM media containing 100 units/ml penicillin, 100 μg/ml streptomycin, and 10% FBS. The cells were transfected with the plasmid prepared in (1) above using Lipofectamine™ 2000 (hereinafter referred to as “LF2000”, Invitrogen), following the manufacturer's protocol. The COS-7 cells were inoculated in a 10 cm culture dish on the previous day so as to be 90% confluent on the day of transfection. Culture dishes each containing a plasmid solution (solution A) in which 24 μg of plasmid was diluted in 1.5 ml Opti-MEM I Reduced Serum Medium (Invitrogen) and an LF2000 solution (solution B) in which 60 μl of LF2000 was diluted in 1.5 ml Opti-MEM I Reduced Serum Medium were separately allowed to stand for 5 minutes at room temperature. Solutions A and B were then mixed and the mixture was allowed to stand for 20 minutes at room temperature. The mixture was added to the cultured cells, and incubated at 37° C. (5% CO2) overnight. On the following day, the medium was replaced, and the mixture was further incubated overnight to harvest the cells in the following manner. The cells were washed with PBS (Sigma) once, and 10 ml of a Trypsin-EDTA solution (Sigma) was added to each culture dish. After the solution was distributed to each of the culture dishes, the cells were detached, and the dishes were allowed to stand for about 5 minutes at 37° C. The detached cells from the dishes were suspended in media, collected into centrifuge tubes, and centrifuged at 1200 rpm for 5 minutes at 4° C., and supernatants were removed. The cells were further washed with PBS, and stored at −80° C. KHEM buffer (100 mM Hepes, 50 mM KCl, 10 mM EGTA, 1.92 mM MgCl2, pH 7.4) containing 1 mM DTT, 1 μg/ml antipain, 1 μg/ml aprotinin, 1 μg/ml leupeptin, 1 μg/ml pepstatin A, 157 μg/ml benzamidine, and 120 μg/ml Pefabloc SC was added to the stored cells, and the contents were moved to a glass homogenizer to be homogenized on ice. The cell suspension was centrifuged at 1000 rpm for 5 minutes at 4° C., and the supernatant was further centrifuged at 14000 rpm for one hour. After centrifugation, the supernatant was dispensed into new tubes as PDE4D enzyme solutions, and stored in a deep freezer.
(3) Determination on Dilution Ratio of PDE4D Enzyme Solutions
The PDE4D enzyme solutions prepared in (2) above were dissolved in 20 mM Tris-HCl solution (pH 7.4) to give 10-, 25-, 50-, 100-, 200-, 400-, and 800-fold dilutions of the enzyme solutions. PDE4D activities were measured according to (4) below. The percentage of catalyzed cAMP to total cAMP was calculated, and such a dilution, in which the percentage was between 10% and 30%, was adopted in the inhibitory study below.
(4) Measurement of PDE4D Inhibitory Activity
Necessary amounts of test compounds were weighed, and 100% dimethylsulfoxide (DMSO) was added thereto to adjust the concentration to 10 mM. The solutions were stored in a freezer as stock solutions of each test compound. After being thawed when required, the solutions were diluted 20-fold with 100% DMSO to give a 500 μM concentration. Further, 10-fold serial dilutions were made with 100% DMSO to prepare test compounds of different concentrations. 2 μl of solutions containing one of each of the test compound were separately added into 1.2 ml tubes in which 23 μl of 20 mM Tris-HCl (pH 7.4) had been placed beforehand. […]

Chain of human PDE4D3 (PDE4D) (Q08499 other isoform, or with tags, fused parts or gaps): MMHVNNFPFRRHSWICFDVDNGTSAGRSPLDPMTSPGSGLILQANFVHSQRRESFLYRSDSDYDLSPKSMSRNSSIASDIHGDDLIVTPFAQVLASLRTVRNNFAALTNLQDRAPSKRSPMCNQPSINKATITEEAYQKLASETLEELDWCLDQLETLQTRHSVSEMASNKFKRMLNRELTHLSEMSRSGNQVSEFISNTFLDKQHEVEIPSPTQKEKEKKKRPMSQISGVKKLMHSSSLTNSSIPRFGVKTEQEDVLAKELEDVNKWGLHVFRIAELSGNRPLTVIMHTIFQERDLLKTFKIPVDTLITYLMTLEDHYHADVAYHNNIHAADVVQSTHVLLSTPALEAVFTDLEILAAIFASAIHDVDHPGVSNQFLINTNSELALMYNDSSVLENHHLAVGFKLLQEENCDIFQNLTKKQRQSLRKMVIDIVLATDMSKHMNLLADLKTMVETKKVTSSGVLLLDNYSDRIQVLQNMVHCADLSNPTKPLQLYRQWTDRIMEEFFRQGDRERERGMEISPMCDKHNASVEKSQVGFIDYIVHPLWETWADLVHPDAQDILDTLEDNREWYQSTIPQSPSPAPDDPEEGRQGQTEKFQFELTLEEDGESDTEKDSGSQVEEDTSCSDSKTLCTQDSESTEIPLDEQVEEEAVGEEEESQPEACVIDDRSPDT

Turning to `Cc1cccnc1C(=O)NCc1coc(-c2ccc(OC(F)F)c(OCC(C)C)c2)n1` [Example 344, N-[2-(4-difluoromethoxy-3-isobutoxyphenyl)oxazol-4-ylmethyl]-3-methylpicolinamide], the IC50 (in general, the concentration at which inhibition is half-maximal) was less than 50 nM.
As for `CCOc1ccccc1C(=O)NCc1coc(-c2ccc(OC(F)F)c(OCC(F)(F)F)c2)n1` [Example 383, N-{2-[4-difluoromethoxy-3-(2,2,2-trifluoroethoxy)phenyl]-oxazol-4-ylmethyl}-2-ethoxy benzamide], the IC50 is less than 50 nM.
Next, `CCOc1cc(-c2nc(CCC(=O)c3ccccc3OC)co2)ccc1OC` [Example 172, 3-[2-(3-ethoxy-4-methoxyphenyl)oxazol-4-yl]-1-(2-methoxyphenyl)propan-1-one]: less than 50 nM; `Cc1cccnc1C(=O)NCc1coc(-c2ccc(OC(F)F)c(OCC3CCC3)c2)n1` [Example 345, N-[2-(3-cyclobutylmethoxy-4-difluoromethoxyphenyl)oxazol-4-ylmethyl]-3-methyl picolinamide]: less than 50 nM.
With `COc1ccc(-c2nc(CCC(=O)c3ncccc3C)co2)cc1OCC(F)F` [Example 309, 3-{2-[3-(2,2-difluoroethoxy)-4-methoxyphenyl]oxazol-4-yl}-1-(3-methylpyridin-2-yl)propan-1-one], the IC50 is less than 50 nM.
Consider `C=CCOc1cc(-c2nc(CCC(=O)c3ncccc3C)co2)ccc1OC(F)F` [Example 330, 3-[2-(3-allyloxy-4-difluoromethoxyphenyl)oxazol-4-yl]-1-(3-methylpyridin-2-yl)propan-1-one], for which the IC50 is less than 50 nM.
Regarding `C=CCCOc1cc(-c2nc(CCC(=O)c3ccccc3OCC)co2)ccc1OC` [Example 108, 3-[2-(3-(3-butenyloxy)-4-methoxyphenyl)oxazol-4-yl]-1-(2-ethoxyphenyl)propan-1-one], the IC50 was less than 50 nM.
The figure for `COc1ccc(-c2nc(CNC(=O)c3ccc(F)cc3OC)co2)cc1OCC1CC1` [Example 42, N-[2-(3-cyclopropylmethoxy-4-methoxyphenyl)oxazol-4-ylmethyl]-4-fluoro-2-methoxybenzamide] is less than 50 nM.
The figure for `COc1ccc(-c2nc(CCC(=O)c3ncccc3C)co2)cc1OC1Cc2ccccc2C1` [Example 159, 3-{2-[3-(indan-2-yloxy)-4-methoxyphenyl]oxazol-4-yl}-1-(3-methylpyridin-2-yl)propan-1-one] is less than 50 nM; for `C=CCCOc1cc(-c2nc(CCC(=O)c3ccccc3OCCF)co2)ccc1OC` [Example 276, 3-[2-(3-but-3-enyloxy-4-methoxyphenyl)oxazol-4-yl]-1-[2-(2-fluoroethoxy)phenyl]propan-1-one] it is less than 50 nM.
Turning to `COc1ccc(-c2nc(CCC(=O)c3ncccc3C)co2)cc1OC(C)C` [Example 139, 3-[2-(3-isopropoxy-4-methoxyphenyl)oxazol-4-yl]-1-(3-methylpyridin-2-yl)propan-1-one], the IC50 was less than 50 nM.
As for `COc1ccc(-c2nc(CCC(=O)c3ccccc3OCCF)co2)cc1OC(C)C` [Example 275, 1-(2-fluoroethoxyphenyl)-3-[2-(3-isopropoxy-4-methoxyphenyl)oxazol-4-yl]propan-1-one], the IC50 is less than 50 nM.
Next, `CCOc1ccccc1C(=O)NCc1coc(-c2ccc(OC)c(OCC(C)C)c2)n1` [Example 14, N-[2-(3-isobutoxy-4-methoxyphenyl)oxazol-4-ylmethyl]-2-ethoxy benzamide]: less than 50 nM.
Next, `COc1ccc(-c2nc(CNC(=O)c3ccccc3SC)co2)cc1OCC1CC1` [Example 44, N-[2-(3-cyclopropylmethoxy-4-methoxyphenyl)oxazol-4-ylmethyl]-2-methylsulfanylbenzamide]: less than 50 nM.
Regarding `CCOc1cc(-c2nc(CCC(=O)c3ncccc3C)co2)ccc1OC(F)F` [Example 333, 3-[2-(4-difluoromethoxy-3-ethoxyphenyl)oxazol-4-yl]-1-(3-methylpyridin-2-yl)propan-1-one], the IC50 was less than 50 nM.
With `C=CCCOc1cc(-c2nc(CCC(=O)c3ncccc3C)co2)ccc1OC` [Example 146, 3-[2-(3-(3-butenyloxy)-4-methoxyphenyl)oxazol-4-yl]-1-(3-methylpyridin-2-yl)propan-1-one], the IC50 was less than 50 nM.
Next, `CCC(CC)Oc1cc(-c2nc(CNC(=O)c3ncccc3C)co2)ccc1OC` [Example 324, N-{2-[3-(1-ethylpropoxy)-4-methoxyphenyl]oxazol-4-ylmethyl}-3-methylpicolinamide]: less than 50 nM; `CCOc1ccccc1C(=O)NCc1coc(-c2ccc(OC(F)F)c(OC(C)C)c2)n1` [Example 352, N-[2-(4-difluoromethoxy-3-isopropoxyphenyl)oxazol-4-ylmethyl]-2-ethoxybenzamide]: less than 50 nM; `C=CCOc1cc(-c2nc(CCC(=O)c3ccccc3OCC)co2)ccc1OC` [Example 104, 3-[2-(3-allyloxy-4-methoxyphenyl)oxazol-4-yl]-1-(2-ethoxyphenyl)propan-1-one]: less than 50 nM.
With `CCOc1ccc(-c2nc(CCC(=O)c3ncccc3C)co2)cc1OCC` [Example 181, 3-[2-(3,4-diethoxyphenyl)oxazol-4-yl]-1-(3-methylpyridin-2-yl)propan-1-one], the IC50 is less than 50 nM.
`CCC(C)Oc1cc(-c2nc(CCC(=O)c3ncccc3C)co2)ccc1OC` (centres unmarked) [Example 311, 3-[2-(3-sec-butoxy-4-methoxyphenyl)oxazol-4-yl]-1-(3-methylpyridin-2-yl)propan-1-one]: the IC50 was less than 50 nM.
In the case of `CCOc1cccnc1C(=O)CCc1coc(-c2ccc(OC)c(OCC3CC3)c2)n1` [Example 133, 3-[2-(3-cyclopropylmethoxy-4-methoxyphenyl)oxazol-4-yl]-1-(3-ethoxypyridin-2-yl)propan-1-one], the IC50 is less than 50 nM.
Take `CCOc1ccc(-c2nc(CCC(=O)c3ccc(F)cc3OCC)co2)cc1OCC` [Example 299, 3-[2-(3,4-diethoxyphenyl)oxazol-4-yl]-1-(2-ethoxy-4-fluorophenyl)propan-1-one]: the IC50 is less than 50 nM.
Turning to `C=CCCOc1cc(-c2nc(CNC(=O)c3ncccc3C)co2)ccc1OC(F)F` [Example 343, N-[2-(3-but-3-enyloxy-4-difluoromethoxyphenyl)oxazol-4-ylmethyl]-3-methylpicolinamide], the IC50 was less than 50 nM.
`CCOc1ccccc1C(=O)NCc1coc(-c2ccc(OC(F)F)c(OCC(C)C)c2)n1` [Example 348, N-[2-(4-difluoromethoxy-3-isobutoxyphenyl)oxazol-4-ylmethyl]-2-ethoxybenzamide]: the IC50 is less than 50 nM.
On to `C=CCCOc1cc(-c2nc(CCC(=O)c3ccccc3OCC)co2)ccc1OC(F)F` [Example 337, 3-[2-(3-but-3-enyloxy-4-difluoromethoxyphenyl)oxazol-4-yl]-1-(2-ethoxyphenyl)propan-1-one], for which the IC50 was less than 50 nM.
The figure for `CCCOc1cc(-c2nc(CCC(=O)c3ncccc3C)co2)ccc1OC` [Example 143, 3-[2-(4-methoxy-3-propoxyphenyl)oxazol-4-yl]-1-(3-methylpyridin-2-yl)propan-1-one] is less than 50 nM; for `CCOc1ccccc1C(=O)NCc1coc(-c2ccc(OC(F)F)c(OC(CC)CC)c2)n1` [Example 355, N-{2-[4-difluoromethoxy-3-(1-ethylpropoxy)phenyl]oxazol-4-ylmethyl}-2-ethoxybenzamide] it is less than 50 nM.
On to `C=CCCOc1cc(-c2nc(CCC(=O)c3ncccc3C)co2)ccc1OC(F)F` [Example 331, 3-[2-(3-but-3-enyloxy-4-difluoromethoxyphenyl)-oxazol-4-yl]-1-(3-methylpyridin-2-yl)propan-1-one], for which the IC50 was less than 50 nM.

Values taken from USRE46792E1, “Oxazole compound and pharmaceutical composition” (Otsuka Pharmaceutical Co., Ltd., priority 2005, dated 2018).
